The values that follow come from article PMC2850174 (The Journal of biological chemistry, 2007).

In data set [1] the target is T1, AtHEX1 (Arabidopsis thaliana, UniProt Q8L7S6).
T1 sequence (Q8L7S6 25-535 limits assumed): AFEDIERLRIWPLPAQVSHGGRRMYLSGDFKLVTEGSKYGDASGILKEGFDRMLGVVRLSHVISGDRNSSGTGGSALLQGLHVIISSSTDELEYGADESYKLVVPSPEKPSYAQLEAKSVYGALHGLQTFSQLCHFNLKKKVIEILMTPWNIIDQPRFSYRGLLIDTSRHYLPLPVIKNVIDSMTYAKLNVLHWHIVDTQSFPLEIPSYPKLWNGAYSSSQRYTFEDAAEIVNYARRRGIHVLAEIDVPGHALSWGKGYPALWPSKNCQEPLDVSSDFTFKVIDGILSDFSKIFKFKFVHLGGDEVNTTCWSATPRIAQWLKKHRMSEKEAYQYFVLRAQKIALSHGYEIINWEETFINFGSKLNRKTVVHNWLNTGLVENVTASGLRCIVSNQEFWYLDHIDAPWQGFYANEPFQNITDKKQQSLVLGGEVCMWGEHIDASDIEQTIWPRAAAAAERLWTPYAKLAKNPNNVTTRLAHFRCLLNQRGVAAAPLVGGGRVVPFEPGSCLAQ
Description: p-nitrophenylglycoside hydrolysis assay. The data set is classed as biochemical.

Data set [2] concerns the target T2, HEX-1 (Caenorhabditis elegans, UniProt Q22492).
T2 sequence (Q22492 19-555 limits assumed): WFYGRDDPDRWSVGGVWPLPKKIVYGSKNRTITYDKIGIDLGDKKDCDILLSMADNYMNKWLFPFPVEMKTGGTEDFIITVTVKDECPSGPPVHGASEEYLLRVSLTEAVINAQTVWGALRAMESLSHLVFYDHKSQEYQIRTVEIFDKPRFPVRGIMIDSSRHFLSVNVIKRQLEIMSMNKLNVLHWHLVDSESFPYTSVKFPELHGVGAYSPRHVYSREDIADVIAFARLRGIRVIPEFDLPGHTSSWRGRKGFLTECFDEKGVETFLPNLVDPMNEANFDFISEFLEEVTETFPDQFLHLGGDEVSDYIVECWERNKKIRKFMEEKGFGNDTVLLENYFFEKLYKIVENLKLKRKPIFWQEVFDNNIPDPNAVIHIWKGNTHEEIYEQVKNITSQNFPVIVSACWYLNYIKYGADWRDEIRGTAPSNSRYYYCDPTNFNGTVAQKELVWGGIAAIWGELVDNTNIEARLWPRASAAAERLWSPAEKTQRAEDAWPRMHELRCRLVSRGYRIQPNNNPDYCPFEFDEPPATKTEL
Description: p-nitrophenylglycoside hydrolysis assay, Dixon plot. Format: biochemical.

In data set [3] the target is T3, HEX-3 (Caenorhabditis elegans, UniProt A7DY67).
T3 sequence (A7DY67 31-591 limits assumed): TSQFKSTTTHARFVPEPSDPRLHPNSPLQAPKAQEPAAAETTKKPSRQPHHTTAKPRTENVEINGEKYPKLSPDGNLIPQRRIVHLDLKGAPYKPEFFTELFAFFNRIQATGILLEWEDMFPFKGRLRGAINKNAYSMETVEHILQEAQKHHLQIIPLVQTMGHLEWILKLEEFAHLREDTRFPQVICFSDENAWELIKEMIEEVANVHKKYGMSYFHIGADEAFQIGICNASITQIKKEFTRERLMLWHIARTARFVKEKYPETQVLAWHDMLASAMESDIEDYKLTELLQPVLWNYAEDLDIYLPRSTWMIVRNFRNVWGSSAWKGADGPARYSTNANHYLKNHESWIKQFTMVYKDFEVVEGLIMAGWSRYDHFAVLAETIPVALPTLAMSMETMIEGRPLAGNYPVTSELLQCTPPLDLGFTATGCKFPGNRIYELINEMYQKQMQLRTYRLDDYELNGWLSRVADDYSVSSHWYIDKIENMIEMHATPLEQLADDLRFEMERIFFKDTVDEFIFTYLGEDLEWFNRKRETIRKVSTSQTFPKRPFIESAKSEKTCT
The data set can be described thus: GnGn-PA digestion, RP-HPLC. To be noted: read-out: % inhibition at 200 μM. Format: biochemical.

Data set [4] addresses T4, HEX-2 (Caenorhabditis elegans, UniProt G5EFL1).
T4 sequence (G5EFL1 36-596 limits assumed): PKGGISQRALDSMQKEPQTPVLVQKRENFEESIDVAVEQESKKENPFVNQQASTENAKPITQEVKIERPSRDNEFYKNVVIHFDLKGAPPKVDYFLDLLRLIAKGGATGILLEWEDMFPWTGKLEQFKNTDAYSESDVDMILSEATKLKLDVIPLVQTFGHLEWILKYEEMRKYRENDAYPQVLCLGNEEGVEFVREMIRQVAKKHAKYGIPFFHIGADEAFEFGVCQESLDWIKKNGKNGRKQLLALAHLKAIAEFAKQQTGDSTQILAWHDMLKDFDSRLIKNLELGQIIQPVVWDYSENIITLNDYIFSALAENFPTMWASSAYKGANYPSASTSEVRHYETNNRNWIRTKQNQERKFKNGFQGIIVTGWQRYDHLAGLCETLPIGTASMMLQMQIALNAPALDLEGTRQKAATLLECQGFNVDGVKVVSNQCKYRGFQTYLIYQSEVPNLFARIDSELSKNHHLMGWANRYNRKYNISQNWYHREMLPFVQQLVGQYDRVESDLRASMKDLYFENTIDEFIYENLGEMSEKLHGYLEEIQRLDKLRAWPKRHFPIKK
Description: GnGn-PA digestion, RP-HPLC. The data set is classed as biochemical. To be noted: read-out: % inhibition at 200 μM.

Data set [5] deals with T1, AtHEX1. The data set can be described thus: p-nitrophenylglycoside hydrolysis assay, single concentration. To be noted: read-out: % inhibition at 0.1 mM. Format: biochemical.
Substrate in data set [6]: CC(=O)N[C@H]1[C@H](Oc2ccc([N+](=O)[O-])cc2)O[C@H](CO)[C@@H](O)[C@@H]1O
Description: purified protein.

For the molecule `CC(=O)N[C@H]1CN[C@H](CO)[C@@H](O)[C@@H]1O` [2-acetamido-1,2-dideoxynojirimycin, 2-acetamido-1,2,5-trideoxy-1,5-imino-D-glucitol], the “p-nitrophenylglycoside hydrolysis assay (about 50% inhibition at 0.2 mM)” value in data set [1] is given as “about 50% inhibition at 0.2”. Also, in data set [2], the Ki was around 1000 µM.

With `CC(=O)N[C@H]1CN2CC[C@H](O)[C@@H]2[C@@H](O)[C@@H]1O`, the inhibition at 200 µM in data set [3] and in data set [4] was around 80% throughout.

`CC(=O)N[C@H]1/C(=N/OC(=O)Nc2ccccc2)O[C@H](CO)[C@@H](O)[C@@H]1O` [PUGNAc, O-(2-acetamido-2-deoxy-D-glucopyranosylidene)amino N-phenylcarbamate] came in with an inhibitory constant (Ki) in data set [2] of around 2 µM. Further, the inhibition at 100 µM in data set [5] is around 90%.

B1: HEX-1 (Caenorhabditis elegans) (protein)
chain: T2 sequence (Q22492 19-555 limits assumed)
B1: the Km in data set [6] is 1100 µM.

One may read the Ki as a dissociation constant, usually derived from enzyme kinetics or from competition with a known ligand. The term inhibition denotes how much of the control response was suppressed. A word on the Km: it is the substrate concentration at which the rate is half of its maximum.
